Experimental data: PubChem BioAssay (NCI)
Several values for one entry are separate records, joined by “and”; a condition that tells them apart may be missing. Equal values may be shown once.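 Assay format: 96-well plates, 48-hour exposure. GI50: concentration for 50% inhibition of growth. TGI marks complete inhibition of growth.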

Assays:
Experiment in all cases: inhibition of tumour cell growth, NCI panel, 48 h
[1] = system: BT-549 breast
[2] = system: HCT-116 colon
[3] = system: HCT-15 colon
[4] = system: HL-60(TB) leukemia
[5] = system: NCI-H23 lung
[6] = system: NCI-H460 lung
[7] = system: OVCAR-8 ovarian
[8] = system: PC-3 prostate
[9] = system: SF-539 CNS
[10] = system: SK-MEL-2 melanoma

Row | Compound | TGI [1] [µM] | TGI [2] | TGI [3] | TGI [4] | TGI [5] | TGI [6] [µM] | TGI [7] | TGI [8] [µM] | TGI [9] [µM] | TGI [10] [µM] | GI50 [1] [µM] | GI50 [2] [µM] | GI50 [3] [µM] | GI50 [4] [µM] | GI50 [5] [µM] | GI50 [6] [µM] | GI50 [7] | GI50 [8] [µM] | GI50 [9] [µM] | GI50 [10] [µM]
1 | COc1ccc(CC(C#N)c2cc(OC)c(OC)c(OC)c2)cc1 (stereo not given) | > 100 | 3.88 µM | 11 µM | 0.125 µM | 1.96 µM | 21 | 13 µM | > 100 | 0.231 | > 100 | – | – | – | – | – | – | – | – | – | –
2 | O=C(Nn1c2c(sc1=NC1CC1)C(=O)c1ccccc1C2=O)c1cc2ccc1CCc1ccc(cc1)CC2 | 2.91 | 6.45 µM | 3.24 µM | 6.26 µM | 4.32 µM | 12.2 | 11.6 µM | 10.7 | 3.06 | 7.25 | 1.5 | 1.94 | 1.51 | 2.18 | 1.31 | 3.35 | 2.62 µM | 1.62 | 1.67 | 2.47
3 | CCCCCC/C=C\CCCCCCCCCc1c(O)c(OC)cc(O)c1CN(C)C | 21 | 22 µM | 10.8 µM | 5.37 µM | 23.1 µM | 15.2 | 23.8 µM | 14.5 | 22.2 | 40.1 | – | – | – | – | – | – | – | – | – | –
4 | c1cc(-c2cnn3nc(N4CCOCC4)ccc23)nc(NC2CC2)n1 | > 25 | 24.6 µM | > 25 µM | 18.9 µM | > 25 µM | > 25 | > 25 µM | > 25 | 20.4 | 21.6 | 8.15 | 7.55 | 8.66 | 7.5 | 7.19 | 6.61 | 7.9 µM | 7.87 | 6.11 | 7.82
5 | CCC(C)c1cnc(CC(C)C)c(=O)[nH]1 (stereo not given) | > 100 | > 100 µM | > 100 µM | – | > 100 µM | > 100 | > 100 µM | > 100 | – | > 100 | – | – | – | – | – | – | – | – | – | –
6 | COc1cccc2cc(N(C)c3nc(C)nc4ccsc34)ccc12 | 1.3 | 10.5 µM | 13.5 µM | < 0.01 µM | 18 µM | 10.9 | 38.5 µM | 15.1 | < 0.01 | 17.3 | < 0.01 | < 0.01 | < 0.01 | < 0.01 | < 0.01 | < 0.01 | < 0.01 µM | < 0.01 | < 0.01 | 0.123
7 | Cc1sc2c(c1C)C(c1ccc(Cl)cc1)=N[C@@H](CC(=O)Nc1ccc(O)cc1)c1nnc(C)n1-2 | 24.2 | 17.8 µM | 14.9 µM | 8.21 µM | 39.2 µM | 27.4 | 40.6 µM | 23.1 | 19 | 22 | 4.17 | 0.499 | 1.46 | 0.179 | 7.98 | 2.95 | 2.26 µM | 1.11 | 0.629 | 3.31
8 | COc1cc2c(cc1-c1c(C)noc1C)ncc1[nH]c(=O)n([C@H](C)c3ccccn3)c12 | > 100 | > 100 µM | > 100 µM | > 100 µM | > 100 µM | > 100 | > 100 µM | > 100 | > 100 | 77.6 | 13.1 | 1.94 | 0.807 | 0.144 | 6.22 | 11.2 | 3.54 µM | 2.72 | 0.677 | 6.07
9 | CN(C)CCC(=O)NCc1c2nc3ccccc3nc2n2ccccc12 | 60.8 | 59.7 µM | > 100 µM | > 100 µM | > 100 µM | > 100 | > 100 µM | > 100 | 43.2 | > 100 | 23.3 | 21 | 48.4 | 58.1 | 65.6 | 42.5 | 84.8 µM | 33.5 | 21.9 | 48.1
10 | C=C(CN(CCN1CCOCC1)CC(=C)c1ccc(C(=O)Nc2ccccc2N)cc1)c1ccc(C(=O)Nc2ccccc2N)cc1 | 21.2 | 15.3 µM | 43.9 µM | > 50 µM | 9.11 µM | > 50 | 29.5 µM | > 50 | 16.1 | > 50 | 8.56 | 7.68 | 10.5 | 13 | 2.49 | 8.72 | 1.79 µM | 15 | 5.31 | 11.1
11 | Cc1cccc2cc3ccc4ccccc4c3cc12 | > 100 | > 100 µM | > 100 µM | 52 µM | > 100 µM | 83.2 | > 100 µM | > 100 | > 100 | 66.5 | – | – | – | – | – | – | – | – | – | –
12 | O=C(Nc1ccc([N+](=O)[O-])cc1)c1cc2ccccc2cc1O | 2.43 | 1.32 µM | 5.07 µM | 0.909 µM | 1.42 µM | 6.31 | 12.6 µM | 7.88 | 4.94 | 0.722 | 0.444 | 0.319 | 0.365 | 0.235 | 0.294 | 0.365 | 0.425 µM | 0.937 | 0.388 | 0.285
13 | CCCCc1oc2ccccc2c1C(=O)c1cc(I)c(OCCN(CC)CC)c(I)c1 | 9.38 | 3.88 µM and 9.07 µM | 4.68 µM and 8.21 µM | 3.88 µM and 7.09 µM | 8.87 µM and 18 µM | 3.87 | 13.2 µM and 92.5 µM | 8.91 | 10.5 | – | 3.26 | 1.82 | 2.06 | 1.93 | 2.67 | – | 3.37 µM and 11 µM | 1.95 | – | –
14 | COc1cc(C(=O)/C=C/c2c(-c3cccs3)nc3ccccn23)cc(OC)c1OC | 5.55 | 3.08 µM | 5.31 µM | 5.01 µM | 5.33 µM | 2.84 | 6.31 µM | – | 4.5 | 4.35 | 1.86 | 1.63 | 1.6 | 2.01 | 2.2 | 1.42 | 1.68 µM | – | 1.87 | 2.27
15 | O=C1/C(=C/c2ccc(C(F)(F)F)cc2)COc2ccc(O)cc21 | 15.5 | 3.42 µM | 3.47 µM | 4.35 µM | 5.38 µM | 10.4 | 11.1 µM | 4.17 | 3.3 | 21.9 | 4.29 | 1.77 | 1.66 | 1.27 | 2.14 | 3.24 | 3.26 µM | 1.89 | 1.68 | 9.43
16 | NC(N)=N/N=C(/c1ccccc1)c1ccc(O)cc1O | > 100 | > 100 µM | > 100 µM | – | > 100 µM | 88.4 | 59.2 µM | > 100 | 39 | > 100 | – | – | – | – | – | – | – | – | – | –
17 | OCCCCC#Cc1ccccc1C#Cc1cccs1 | 25.4 | 31.4 µM | 26.5 µM | – | 30.9 µM | 29.8 | 31.2 µM | 30.8 | 25.9 | 37.9 | 12.4 | 15.2 | 13.1 | – | 14.2 | 15.1 | 16.4 µM | 16.2 | 12.9 | 19
18 | ClC1=C(Cl)C(Cl)=C(Cl)C1=Cc1ccc(Cl)cc1Cl | 0.809 | 0.494 µM | 1.3 µM | 3.1 µM | 1.14 µM | – | – | 1.64 | 1.4 | 4.49 | 0.277 | 0.206 | 0.3 | 0.403 | 0.281 | – | – | 0.393 | 0.353 | 1.51
19 | C=C(C)C(=O)N1c2ccc(OC)cc2CC1C(=O)OCC (stereo not given) | > 100 | > 100 µM | > 100 µM | – | > 100 µM | > 100 | > 100 µM | > 100 | > 100 | > 100 | – | – | – | – | – | – | – | – | – | –
20 | C=C(C)C1CCC2(CO)C(O)CC3(C)C(CCC4C5(C)CCC(O)C(C)(C)C5CCC43C)C12 (stereo not given) | > 100 | 73.7 µM | 88 µM | > 100 µM | – | 64.3 | 20.7 µM | 60.3 | 30 | 32 | – | – | – | – | – | – | – | – | – | –
21 | COc1ccc2nc(C3=CN(C4OC(CO)C(O)C(O)C4O)C4C=CC=CC34)sc2c1 (stereo not given) | > 100 | 81.7 µM | > 100 µM | – | > 100 µM | > 100 | 77.8 µM | > 100 | 77.7 | > 100 | 33.9 | 22.7 | 32.4 | – | 33.9 | > 100 | 25.2 µM | 38.9 | 29.3 | 38.8
22 | COC(=O)C1=C2CO[C@@H]3C[C@H]4C(C)(C)CCC[C@]4(C)C(=CC1)[C@]23C | > 100 | 51.3 µM | > 100 µM | – | > 100 µM | > 100 | > 100 µM | 0.692 | > 100 | – | 48.9 | 22.5 | 41.7 | – | 29.8 | 51.1 | 40.2 µM | 0.229 | 72.7 | –
23 | Cc1cc(S(=O)(=O)Nc2nc3ccsc3c(=O)n2Cc2ccccc2)c(S)cc1Cl | 89.8 | 37.7 µM | > 100 µM | > 100 µM | 57.5 µM | 71 | > 100 µM | > 100 | 70.3 | – | 28 | 19.2 | 74.5 | > 100 | 24.9 | 23.6 | 44.5 µM | 40.4 | 28.1 | –
24 | Cc1cc(Cl)ccc1Nc1nc(C(F)(F)F)ccc1C(=O)N/N=C/c1ccc(N(C)C)cc1 | 6.78 | > 100 µM | > 100 µM | > 100 µM | > 100 µM | > 100 | > 100 µM | – | > 100 | – | 0.624 | 0.743 | 0.481 | 1.44 | 3.92 | 1.57 | 2.83 µM | – | 5.87 | –
25 | CC1(C)CC(O)CCCCCCOc2c(CN)cccc2NC(=O)c2nc(cnc2N)-c2ccc(cc2)S1(=O)=O (stereo not given) | 2.85 | 1.03 µM | 2.56 µM | – | – | 2.31 | 5.87 µM | 3.67 | 1.73 | 3.15 | 1.25 | 0.187 | 0.263 | – | – | < 0.0192 | 2.14 µM | 0.543 | 0.0363 | 1.36
26 | c1cc(C2N3CCCN2CC3)ccn1 (stereo not given) | > 100 | > 100 µM | > 100 µM | > 100 µM | > 100 µM | > 100 | > 100 µM | > 100 | – | > 100 | – | – | – | – | – | – | – | – | – | –
27 | COc1ccc(Cn2cc3c(c2-c2ccccc2)CCc2cncnc2-3)cc1 | 14.7 | 14.9 µM | 16.5 µM | 5.7 µM | 39.3 µM | 13.1 | 23.7 µM | 31.1 | 18.7 | – | 4.1 | 3.65 | 4.3 | 2.04 | 10.6 | 3.48 | 7.76 µM | 8.71 | 6 | –
28 | COc1ccc(NCc2c(O)ccc3ccccc23)cc1 | 43.5 | > 100 µM | > 100 µM | – | > 100 µM | > 100 | 29.2 µM | 49.9 | 25.9 | > 100 | – | – | – | – | – | – | – | – | – | –
29 | CCOC(CN(C)C(=O)OCC(Cl)(Cl)Cl)OCC | > 100 | > 100 µM | > 100 µM | 59.1 µM | > 100 µM | > 100 | > 100 µM | > 100 | > 100 | – | – | – | – | – | – | – | – | – | – | –
30 | Cc1ccc2oc(=O)cc(C3c4ccc([nH]4)C(c4cc(=O)oc5ccc(C)cc45)c4ccc([nH]4)C(c4cc(=O)oc5ccc(C)cc45)c4ccc([nH]4)C(c4cc(=O)oc5ccc(C)cc45)c4ccc3[nH]4)c2c1 (stereo not given) | 0.183 | 0.28 µM | 1.21 µM | – | 1.58 µM | 0.656 | 1.52 µM | 1.94 | 0.0669 | 1.02 | 0.0299 | 0.0295 | 0.0317 | – | 0.0574 | 0.0375 | 0.0338 µM | 0.0366 | 0.0239 | 0.0983
